Experimental data taken from patent EP1401829B1, “NOVEL HETEROCYCLIC ANTIBACTERIAL COMPOUNDS” (Microbiotix, Inc., priority 2001, dated 2002).
Converted amounts (≈) assume the structure as drawn. Read-outs that look alike come from different tables or passages of the source. Marks after values point to notes of the source that are not given here.

Columns and labels:
MSSA108 = experiment: MIC against clinically relevant strains; type: cell-based; details: Staphylococcus aureus; methicillin sensitive S. aureus strain
Procedure: (§1) The following methods were used to characterize representative compounds. Minimal Inhibitory Concentration (MIC) determinations. MIC values were determined in 96 well plates, with bacterial growth monitored at OD 600 nm in 200µl following an initial bacterial seeding at approximately 1x10^5 colony forming units (CFU)/ml. Each drug is evaluated at five concentrations, with five data points at each dilution. MIC values (µg/ml) were determined against actively growing cultures in Heart-Brain Infusion (HBI) medium. Cell growth in cultures supplemented with a test compound was calculated as a percent of control at OD 600 nm after 16 to 18 hours at 37°C. This plate format conserves test compound and provides precise, quantitative data with low standard deviation determinations. Polymerase IIIC (Pol IIIC) assay. DNA polymerase activity (or inhibition thereof) was measured in a 96-well plate format. B. subtilis Pol IIIC was isolated as described by Hammond and Brown (Protein Expr. Purif., 3: 65-70 (1992)). Each 25 µl assay contained 30 mM Tris, pH 7.5, 10 mM magnesium acetate, 4 mM dithiothreitol, 20% glycerol, with 25 µM dATP, dCTP, dGTP and 10 µM dTTP (^3H-labelled at 1.44 Ci/mmole) and 0.4 mg/ml activated calf thymus DNA as substrates, as described previously (see Barnes et al, op. cit). Assays were initiated by the addition of 0.025 to 0.06 units of enzyme 1 unit is the amount required to incorporate 250 pmoles of [^3H] dTMP in a standard assay), incubated for 10 minutes at 30°C and terminated by the addition of 200 µl of cold 10% trichloroacetic acid (TCA),10 mM sodium pyrophosphate. Precipitated labeled DNA was collected on glass fiber filter plates, washed, dried, and counted in a liquid scintillation counter. Determination of Ki values. DNA polymerase activity was measured in a 96-well plate format in the absence of dGTP or dATP, depending on the structure of the test compound. Each 25 µl assay contained 30 mM Tris, pH 7.5, 10 mM magnesium acetate, 4 mM dithiothreitol, 20% glycerol, with 25 µM dATP, dCTP, and 10 µM dTTP (^3H-labelled at 1.44 Ci/mmole) and 0.4 mg/ml activated calf thymus DNA as substrates, as described previously. To each well were added 2 µl of compound solution to give final concentrations ranging from 20 - 0.027 µg/ml in the assay. Assays were initiated by the addition of 0.025 to 0.06 units of enzyme (1 unit is the amount required to incorporate 250 pmoles of [^3H] dTMP in a standard assay), incubated for 10 minutes at 30 °C and terminated by the addition of 200 µl of cold 10% trichloroacetic acid, 10 mM sodium pyrophosphate. Precipitated labeled DNA was collected on glass fiber filter plates, washed, dried, and counted in a liquid scintillation counter. Ki is the concentration of test compound that reduces the control polymerase IIIC activity by 50 percent.
(§2) Compounds were also tested for antibacterial activity against certain clinically relevant strains, e.g., methicillin sensitive (MSSA) and methicillin resistant (MRSA) strains of Staphylococcus aureus.

MRSA1132 = experiment: MIC against clinically relevant strains; type: cell-based; details: Staphylococcus aureus; methicillin resistant S. aureus strain
Procedure: as §1, §2

MRSA 1123 = experiment: MIC against clinically relevant strains; type: cell-based; details: Staphylococcus aureus, methicillin resistant S. aureus strain
Procedure: as §1, §2

MRSA1094 = experiment: MIC against clinically relevant strains; type: cell-based; details: Staphylococcus aureus; methicillin resistant S. aureus strain
Procedure: as §1, §2

S. aureus = experiment: Minimal Inhibitory Concentration (MIC) determination, 96 well plates; type: cell-based, Staphylococcus aureus; details: for MIC: Staphylococcus aureus, read-out: MIC (µg/ml) S. aureus
Procedure, shortened: (§3)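 Cultures seeded at approximately 1x10^5 CFU/ml in Heart-Brain Infusion medium were exposed to five compound concentrations, five data points each, for 16 to 18 hours at 37°C. Growth at OD 600 nm was expressed as percent of control, and MIC values are given in µg/ml.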

S.aureus (Smith) = experiment: as above; type: cell-based, Staphylococcus aureus; details: for MIC: Staphylococcus aureus
Procedure, shortened: (§4)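 Broth growth in Heart-Brain Infusion medium, seeded at about 1x10^5 CFU/ml, 16 to 18 hours at 37°C. Growth read at OD 600 nm as percent of untreated control; five concentrations per drug, five data points each, MIC reported in µg/ml.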

B. subtilis Pol IIIC = target: T1, B. subtilis Pol IIIC (Bacillus subtilis, UniProt P13267); experiment: Polymerase IIIC (Pol IIIC) assay, determination of Ki values; type: biochemical; details: assay in absence of dGTP or dATP, Ki is the concentration that reduces control polymerase IIIC activity by 50 percent
T1 construct: made in house
T1 sequence (P13267 whole entry): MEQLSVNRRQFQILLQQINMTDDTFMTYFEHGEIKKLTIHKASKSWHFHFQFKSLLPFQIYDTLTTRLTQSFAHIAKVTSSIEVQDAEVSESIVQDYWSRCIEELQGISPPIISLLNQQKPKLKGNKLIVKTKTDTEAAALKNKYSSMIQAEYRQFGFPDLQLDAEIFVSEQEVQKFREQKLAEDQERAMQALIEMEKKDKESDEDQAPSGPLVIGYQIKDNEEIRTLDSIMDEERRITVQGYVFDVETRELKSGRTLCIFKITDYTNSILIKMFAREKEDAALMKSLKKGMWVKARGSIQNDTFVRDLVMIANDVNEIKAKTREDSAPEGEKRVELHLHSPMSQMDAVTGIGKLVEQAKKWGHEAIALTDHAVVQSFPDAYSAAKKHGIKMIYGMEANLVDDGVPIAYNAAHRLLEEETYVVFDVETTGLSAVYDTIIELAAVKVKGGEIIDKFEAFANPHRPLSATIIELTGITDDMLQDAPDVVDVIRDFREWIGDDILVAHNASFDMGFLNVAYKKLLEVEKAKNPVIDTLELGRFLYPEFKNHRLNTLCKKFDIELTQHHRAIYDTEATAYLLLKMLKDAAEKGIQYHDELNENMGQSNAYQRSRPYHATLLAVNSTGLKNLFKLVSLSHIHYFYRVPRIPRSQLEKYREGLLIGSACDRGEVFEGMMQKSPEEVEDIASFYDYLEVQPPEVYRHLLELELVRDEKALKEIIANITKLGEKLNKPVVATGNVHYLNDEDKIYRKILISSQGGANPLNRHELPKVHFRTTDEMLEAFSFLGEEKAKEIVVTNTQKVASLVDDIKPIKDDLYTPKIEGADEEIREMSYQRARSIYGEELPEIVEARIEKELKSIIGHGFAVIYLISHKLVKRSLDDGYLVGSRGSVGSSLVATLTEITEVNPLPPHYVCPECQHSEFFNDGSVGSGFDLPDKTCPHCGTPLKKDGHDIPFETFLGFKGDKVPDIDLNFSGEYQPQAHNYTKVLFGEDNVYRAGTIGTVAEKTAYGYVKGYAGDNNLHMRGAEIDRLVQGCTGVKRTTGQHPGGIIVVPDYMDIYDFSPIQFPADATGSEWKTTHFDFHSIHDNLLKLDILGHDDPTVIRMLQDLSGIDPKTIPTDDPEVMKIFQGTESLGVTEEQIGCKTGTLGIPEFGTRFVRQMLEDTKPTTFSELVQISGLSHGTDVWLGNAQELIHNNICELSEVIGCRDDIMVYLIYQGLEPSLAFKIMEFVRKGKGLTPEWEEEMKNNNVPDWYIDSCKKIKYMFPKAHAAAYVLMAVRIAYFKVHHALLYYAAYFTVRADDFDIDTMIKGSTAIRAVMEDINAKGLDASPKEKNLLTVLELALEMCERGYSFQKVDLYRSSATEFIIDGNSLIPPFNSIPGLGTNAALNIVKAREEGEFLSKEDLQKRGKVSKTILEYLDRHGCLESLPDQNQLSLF
Procedure, shortened: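 Isolated B. subtilis Pol IIIC (0.025–0.06 units) run 10 min at 30°C in 30 mM Tris pH 7.5, 10 mM Mg acetate, 4 mM DTT, 20% glycerol. Substrates were 0.4 mg/ml activated calf thymus DNA, 25 µM dNTPs and 10 µM [3H]dTTP, with dGTP or dATP omitted per compound structure.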

E. fecium = experiment: Minimal Inhibitory Concentration (MIC) determination, 96 well plates; type: cell-based, Enterococcus fecium; details: HBI medium, 16 to 18 hours at 37°C; for MIC: Enterococcus, read-out: MIC (µg/ml) E. fecium
Procedure, shortened: as §4

E. fecalis = experiment: as above; type: cell-based, Enterococcus fecalis; details: HBI medium, 16 to 18 hours at 37°C; for MIC: Enterococcus, read-out: MIC (µg/ml) E. fecalis
Procedure, shortened: as §4

B. subtilis = experiment: as above; type: cell-based, Bacillus subtilis; details: HBI medium, 16 to 18 hours at 37°C; for MIC: Bacillus subtilis, read-out: MIC (µg/ml) B. subtilis
Procedure, shortened: as §4

E. coli = experiment: as above; type: cell-based, Escherichia coli; details: for MIC: Escherichia coli, read-out: MIC (µg/ml) E. coli
Procedure, shortened: as §3

VRE 700802 = experiment: In vivo efficacy of Compound 70 in mouse models; design: species or system Enterococcus faecalis; details: mice, 3x10^8 CFU/mouse + 5% Mucin; positive control, 100mg/kg, t=0
Procedure: Swiss Webster mice, ca. 20 g each, were infected with Staphylococcus aureus (Smith strain) by the intraperitoneal route. Test compounds (2, 4, 5, 6, 7, 8, 10, 12) were dissolved in 10% dimethylsulfoxide in peanut oil to a concentration of 2 mg/ml. Vancomycin was used as positive control drug (i.e., protection from lethal infection). Fifteen minutes after infection, test compounds, vancomycin, or vehicle alone were given intraperitoneally to groups of five mice each. Animals were monitored for three days, and the number of mice surviving was tabulated for each treatment.
Using the same basic procedure as described above, the in vivo efficacy of Compound 70 was also evaluated at various doses in mice infected with S. aureaus (Smith), MRSA 1094, Enterococcus faecalis, or vancomycin-resistant Enterococcus faecalis strain VRE 700802. […] Negative controls were mice infected that received no treatment. Mucin was employed as an adjuvant to facilitate bacterial infection in mice, where indicated.

[1] = HBI medium, 16 to 18 hours at 37°C
[2] = HBI medium, 16 to 18 hours at 37°C, read-out: MIC (µg/ml) S.aureus (Smith)
[3] = table of MSSA/MRSA strains, read-out: MIC (µg/ml) S. aureus (Smith)

Compound | MIC (S. aureus; [1]) [µg/mL] | MIC (S.aureus (Smith); [2]) [µg/mL] | Ki (B. subtilis Pol IIIC; Ki (µM) Pol IIIC) [µM] | MIC (E. fecium) [µg/mL] | MIC (E. fecalis) [µg/mL] | MIC (B. subtilis) [µg/mL] | MIC (E. coli; [1]) [µg/mL] | also measured
CCc1cc(Nc2cc(=O)n(CCCCN3CCN(c4cc5c(cc4F)c(=O)c(C(=O)O)cn5-c4ccc(F)cc4F)CC3)c(=O)[nH]2)ccc1C [Compound 12, 3-{4-[1-(1-{2,4-difluorophenyl}-3-carboxy-4-oxo-6-fluoro-7-quinolyl)-4-piperazinyl]butyl}-6-(3-ethyl-4-methylanilino)uracil] | 0.313 (≈ 0.445 µM) | 0.313 (≈ 0.445 µM) | 0.018 | 5 (≈ 7.12 µM) | 2.5 (≈ 3.56 µM) | 0.156 (≈ 0.222 µM) | 2.5 (≈ 3.56 µM) | MIC (MSSA108): 0.625 µg/mL (≈ 0.889 µM); MIC (MRSA1132): 0.625 µg/mL (≈ 0.889 µM); MIC (MRSA 1123): 1.25 µg/mL (≈ 1.78 µM); MIC (MRSA1094): 0.625 µg/mL (≈ 0.889 µM); MIC (S. aureus; table of MSSA/MRSA strains): 0.313 µg/mL (≈ 0.445 µM); MIC (S.aureus (Smith); [3]): 0.313 µg/mL (≈ 0.445 µM)
CCc1cc(Nc2cc(=O)n(CCCCN3CCN(c4nc5c(cc4F)c(=O)c(C(=O)O)cn5CC)CC3)c(=O)[nH]2)ccc1C [Compound 6, 3-{4-[1-(1-ethyl-3-carboxy-4-oxo-6-fluoro-8-aza-7-quinolyl)-4-piperazinyl]butyl}-6-(3-ethyl-4-methylanilino)uracil] | 0.625 (≈ 1.01 µM) | 0.625 (≈ 1.01 µM) | 0.018 | 1.25 (≈ 2.02 µM) | 1.25 (≈ 2.02 µM) | 0.156 (≈ 0.252 µM) | > 20 | MIC (MSSA108): 0.625 µg/mL (≈ 1.01 µM); MIC (MRSA1132): 0.625 µg/mL (≈ 1.01 µM); MIC (MRSA 1123): 0.625 µg/mL (≈ 1.01 µM); MIC (MRSA1094): 1.25 µg/mL (≈ 2.02 µM); MIC (S. aureus; table of MSSA/MRSA strains): 0.625 µg/mL (≈ 1.01 µM); MIC (S.aureus (Smith); [3]): 0.625 µg/mL (≈ 1.01 µM)
O=C(O)c1cn(C2CC2)c2cc(N3CCNCC3)c(F)cc2c1=O [cflxn, ciprofloxacin, reference compound] | 0.156 (≈ 0.471 µM) | 0.078 (≈ 0.235 µM) | – | – | – | 0.156 (≈ 0.471 µM) | 0.078 (≈ 0.235 µM) | % Survival at 72 hours (VRE 700802): ciprofloxacin (100mg/kg, t=0) 90% (9/10)**; Ki (µM) Pol IIIC (B. subtilis Pol IIIC): inactive
CCc1cc(Nc2cc(=O)n(CCOCCN3CCN(c4cc5c(cc4F)c(=O)c(C(=O)O)cn5C4CC4)CC3)c(=O)[nH]2)ccc1C [Compound 11, 3-{2-[1-(1-cyclopropyl-3-carboxy-4-oxo-6-fluoro-7-quinolyl)-4-piperazinyl]ethoxyethyl}-6-(3-ethyl-4-methylanilino)uracil] | 5 (≈ 7.73 µM) | 2.5 (≈ 3.87 µM) | 0.03 | 5 (≈ 7.73 µM) | 10 (≈ 15.5 µM) | 1.25 (≈ 1.93 µM) | > 80 | –
3-{5-[1-(1-ethyl-3-carboxy-4-oxo-6,8-difluoro-7-quinolyl)-3-(1,3-diazabicyclononyl)]pentyl}-6-(3-ethyl-4-methylanilino)uracil [Compound 88] | – | – | – | – | – | – | – | MIC (µg/ml) S. aureus (S. aureus; [1]): 1.25 µg/mL; MIC (µg/ml) S.aureus (Smith) (S.aureus (Smith); [1]): 1.25 µg/mL; Ki (B. subtilis Pol IIIC; read-out: Ki (µM) Pol IIIC): 0.024 µM; MIC (µg/ml) E. fecium (E. fecium): 5 µg/mL; MIC (µg/ml) E. fecalis (E. fecalis): 2.5 µg/mL; MIC (µg/ml) B. subtilis (B. subtilis): 0.625 µg/mL; MIC (µg/ml) E. coli (E. coli; [1]): >20 µg/mL
CCc1cc(Nc2cc(=O)n(CCCCN3CCN(c4cc5c(cc4F)c(=O)c(C(=O)O)cn5-c4ccc(F)cc4F)CC3C)c(=O)[nH]2)ccc1C (stereo not drawn) [Compound 89, 3-{4-[1-(1-{2,4-difluorophenyl}-3-carboxy-4-oxo-6-fluoro-7-quinolyl)-3-methyl-4-piperazinyl]butyl}-6-(3-ethyl-4-methylanilino)uracil] | 0.313 (≈ 0.437 µM) | 0.156 (≈ 0.218 µM) | 0.018 | 0.625 (≈ 0.872 µM) | 0.625 (≈ 0.872 µM) | 0.156 (≈ 0.218 µM) | > 80 | –
CCc1cc(Nc2cc(=O)n(CCCCN3CCN(c4ncc5c(=O)c(C(=O)O)cn(CC)c5n4)CC3)c(=O)[nH]2)ccc1C [Compound 79, 3-{4-[1-(1-ethyl-3-carboxy-4-oxo-6,8-diaza-7-quinolyl)-4-piperazinyl]butyl}-6-(3-ethyl-4-methylanilino)uracil] | 1.25 (≈ 2.07 µM) | 0.95 (≈ 1.58 µM) | 0.028 | 3.7 (≈ 6.14 µM) | 2.5 (≈ 4.15 µM) | 0.156 (≈ 0.259 µM) | > 80 | –
CC1CN(c2c(F)cc3c(=O)c(C(=O)O)cn(C4CC4)c3c2F)CCN1CCCCn1c(=O)cc(Nc2ccc3c(c2)CCC3)[nH]c1=O (stereo not drawn) [Compound 92, 3-{4-[1-(1-cyclopropyl-3-carboxy-4-oxo-6,8-difluoro-7-quinolyl)-3-methyl-4-piperazinyl]butyl}-6-(5-indanylamino)uracil] | 0.313 (≈ 0.474 µM) | 0.235 (≈ 0.356 µM) | 0.016 | 0.937 (≈ 1.42 µM) | 0.625 (≈ 0.946 µM) | 0.117 (≈ 0.177 µM) | 2.5 (≈ 3.78 µM) | –
Cc1ccc(Nc2cc(=O)n(CCCCN3CCN(c4c(F)cc5c(=O)c(C(=O)O)cn(C6CC6)c5c4F)CC3)c(=O)[nH]2)cc1C [Compound 101, 3-{4-[1-(1-cyclopropyl-3-carboxy-4-oxo-6,8-difluoro-7-quinolyl)-4-piperazinyl]butyl}-6-(3,4-dimethylanilino)uracil] | 0.625 (≈ 0.985 µM) | 0.313 (≈ 0.493 µM) | 0.024 | 1.25 (≈ 1.97 µM) | 0.937 (≈ 1.48 µM) | 0.235 (≈ 0.37 µM) | 5 (≈ 7.88 µM) | –
CCn1cc(C(=O)O)c(=O)c2cc(F)c(N3CCNCC3)cc21 [nflxn, norfloxacin, reference compound] | 0.625 (≈ 1.96 µM) | 0.156 (≈ 0.489 µM) | – | 20 (≈ 62.6 µM) | 2.5 (≈ 7.83 µM) | 0.625 (≈ 1.96 µM) | – | Ki (µM) Pol IIIC (B. subtilis Pol IIIC): inactive; MIC (E. coli): 0.078 µg/mL (≈ 0.244 µM)
